In ChEMBL document CHEMBL1126105, “Dihydroxynitrobenzaldehydes and hydroxymethoxynitrobenzaldehydes: synthesis and biological activity as catechol-O-methyltransferase inhibitors” (J Med Chem, 1992):
pIC50, pKi: −log10 of the molar value.

Legend:
[1] = target: T1, Catechol O-methyltransferase (Sus scrofa, UniProt Q99028); assay: Compound was evaluated for reversible inhibition of Catechol O-methyltransferase with saturating AdoMet and variable catechol as substrate (Non-competitive inhibition)
T1 sequence (Q99028 whole entry): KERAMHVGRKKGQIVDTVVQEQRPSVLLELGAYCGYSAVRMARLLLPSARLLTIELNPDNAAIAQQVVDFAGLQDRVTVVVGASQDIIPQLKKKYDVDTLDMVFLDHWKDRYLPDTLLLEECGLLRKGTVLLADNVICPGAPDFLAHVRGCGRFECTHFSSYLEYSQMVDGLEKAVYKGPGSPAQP

[2] = target: T1, Catechol O-methyltransferase; assay: Compound was evaluated for reversible inhibition of Catechol O-methyltransferase with variable AdoMet and saturating catechol as substrate (uncompetitive inhibition)
[3] = target: T1, Catechol O-methyltransferase; assay: In vitro inhibition of Catechol-O-methyltransferase (COMT) from isolated partially purified pig liver enzyme
[4] = target: T2, Catechol O-methyltransferase (Sus scrofa) (UniProt Q99028)
T2 sequence (whole entry): T1 sequence (Q99028 whole entry)
Description: (§1) Compound was evaluated for reversible inhibition of Catechol O-methyltransferase with saturating AdoMet and variable catechol as substrate (mixed inhibition)

[5] = target: T2, Catechol O-methyltransferase (Sus scrofa); remark: listed apart in the source
Description: as §1

[6] = target: T2, Catechol O-methyltransferase (Sus scrofa); remark: listed apart in the source
[7] = target: T2, Catechol O-methyltransferase (Sus scrofa); assay: Compound was evaluated for reversible inhibition of Catechol O-methyltransferase with variable AdoMet and saturating catechol as substrate (uncompetitive inhibition)
[8] = target: T2, Catechol O-methyltransferase (Sus scrofa); assay: Compound was evaluated for reversible inhibition of COMT with saturating AdoMet and variable catechol as substrate (mixed inhibition)

Structure (SMILES) | pKi [1] | pKi [2] | pIC50 [3] | KIs [4] | KII [5] | KII [6] | KIs [7] | KII [8]
O=Cc1c([N+](=O)[O-])ccc(O)c1O | – | – | 5.00 | 4.77 µM | 909 nM | – | – | –
O=Cc1cc(O)c(O)c([N+](=O)[O-])c1 [3,4-DIHYDROXY-5-NITROBENZALDEHYDE] | – | – | 5.70 | 0.816 µM | 138 nM | 1.38e-07 µM | – | –
O=Cc1ccc(O)c(O)c1[N+](=O)[O-] | – | – | 5.82 | 0.497 µM | – | – | 678 nM | 168 nM
O=Cc1cc(O)c(O)cc1[N+](=O)[O-] | – | – | 5.07 | 2.69 µM | 921 nM | – | – | –
O=Cc1cc([N+](=O)[O-])cc(O)c1O | – | – | 5.68 | 1.2 µM | 231 nM | – | 7770 nM | –

Continued by rising pIC50 [3], values first:

pKi [1] | pKi [2] | pIC50 [3] | KIs [4] | KII [5] | KII [6] | KIs [7] | KII [8] | Structure (SMILES)
4.76 | 4.87 | 4.47 | – | – | – | – | – | COc1c(O)cc(C=O)cc1[N+](=O)[O-]
– | – | 5.82 | 0.478 µM | 145 nM | – | 538 nM | – | O=Cc1ccc([N+](=O)[O-])c(O)c1O
